# pKi: −log10 of the molar value.
# Molecular target: Protein Kinase A (PKA) (Homo sapiens, UniProt P17612)
# Assay: pulsed field mobility shift assay screening for Protein Kinase A (PKA) inhibitors
# Type: biochemical
# Conditions: from dose response curve (FIG. 10), 7 H9 concentrations 0.15-30.75 μM; pulsed field and standard (constant field) mobility shift assays predict same Ki; read-out: Ki value for the inhibitor
# Description: In an exemplary embodiment, the pulsed field mobility shift assay was used for screening for Protein Kinase A (PKA) inhibitors. Samples were drawn from a 96 well plate into a microfluidic device through a capillary. The plate contained 7 different concentration samples (0.15 μM, 0.32 μM, 0.63 μM, 1.54 μM, 2.52 μM, 5.05 μM, and 30.75 μM) of H9 at randomly chosen wells. Except for a single well containing the 30.75 μM concentration of H9, two wells contained each of the other six concentrations of H9. The last column of each row of the well plate contained a marker used to indicate the end of row. In this embodiment, the marker was 1 μM of 100% converted PKA product. Once in the reaction channel of the microfluidic device, the pressure driven velocity of the sample was set at 0.028 cm/s and the applied electric field was set to 997 V/cm. […] Each sample was sipped for 30 seconds separated by a 30 second buffer sip. […] From the data in FIGS. 8 and 9, the parameter C1/C0, which is the ratio of the fluorescence measured while the electric field is on to the fluorescence measured while the field is off, was determined for each of the seven H9 concentrations. That parameter was also measured in the absence of H9 to provide a baseline value. The deviation from the baseline value ΔC/C=((C1/C0)|H9sample−(C1/C0)|buffer), was evaluated for each H9 sample. […]
compound,measurement,value
NCCNS(=O)(=O)c1cccc2cnccc12 [H9],pKi,5.46

# — patent US9683994B2, “High throughput mobility shift” (Caliper Life Sciences, Inc., priority 2002, dated 2017)
